According to patent US20240018120A1, “MAGL INHIBITORS” (H. LUNDBECK A/S, priority 2020, published 2024):

Assays:
[1] = system: kainic acid seizure model; test: Kainic acid seizure model in the rat; assay type: in vivo
Description: Kainic acid is an analog of the excitatory neurotransmitter, glutamate and acts as an agonist of kainic acid receptors. After systemic injection, kainic acid induces prolonged excitatory responses with many of the features of human temporal lobe epilepsy.
Rats, placed in individual Plexiglas cages (33×21×18 cm), are injected with kainic acid (20 mg/kg i.p.). The occurrences of the following symptoms are noted over a 120-minute period 30 minutes after kainic acid injection: forelimb clonus, rearings and rearings with falling, clonic convulsions, tonic convulsions and death. The presence of each symptom and the latencies to the first appearance of the symptoms are measured. The number of forelimb clonus is counted.
12 rats are studied per group. The test is performed partially blind.
The test substances will be evaluated at multiple doses, administered p.o. 240 minutes before the test, and compared with the corresponding vehicle control group (Group 2, administered with 10% HP-b-CD in distilled water, p.o. 240 minutes before the test).
Example 6 was evaluated at 0.3, 1, 3 and 10 mg/kg, and Example 8 was evaluated at 1, 3 and 10 mg/kg, administered p.o. 4 hours before the test, and compared with a vehicle control group (administered with 10% HP-b-CD, p.o. 4 hours before the test).
Diazepam (16 mg/kg) used as reference substance, was administered p.o. 60 minutes before the test (0.5% HP-b-CD) and was compared with vehicle controls.
Quantitative data (latencies) with the test substance was analyzed by comparing treated groups with vehicle control using Kruskal-Wallis test followed by Mann-Whitney U test. Quantitative data with the reference substance will be analysed using Mann-Whitney U test.
Quantal data (frequencies) were analyzed by comparing treated groups with vehicle control using Fisher's Exact Probability tests.

[2] = system: rat formalin paw model of inflammatory pain; test: Rat formalin paw model of inflammatory pain; assay type: in vivo; details: 0.6 mg/kg, 3 mg/kg and 10 mg/kg oral, 4 h pre-test; early and/or late phases; vs vehicle
Description: In the rat formalin paw model formalin is administered into the right […] of a rat in order to induce pain (observed by hind limb licking duration and frequency).
Male Sprague Dawley rats were divided into three cohorts to enable testing in the Laboras™ equipment to be carried out over three days in a balanced design to give treatment groups of 10. On the day of the study, male Sprague Dawley rats were weighed, tail marked and dosed orally with vehicle, test compound (0.1, 0.3, 0.6, 1, 3 or 10 mg/kg) or pregabalin (30 mg/kg) 4 h pre-test using a 5 mL/kg dosing volume. For Example 6 the vehicle used was 0.5% methylcellulose in water and for Example 8 the vehicle used was 20% HP-b-CD. Up to six animals were dosed at a time. After 4 h, rats received an intraplantar injection of 50 μL of a 2.5% v/v formalin solution into the right hind paw. Rats were immediately placed into the Laboras™ cages and data acquisition started. The primary measures recorded by Laboras™ for the formalin paw model are hind limb licking duration and frequency. Locomotion is also reported as maximum speed, average speed when moving or over the whole-time bin and distance travelled. After 40 min, when data acquisition was complete, rats were removed from the cages.
On removal from the test cages, rats were anaesthetised with the gaseous anaesthetic isoflurane (5% v/v isoflurane in oxygen) and blood samples were collected by cardiac puncture. Brains were then removed, rinsed in phosphate buffered saline (PBS), hemi-sected and frozen separately in liquid nitrogen.
Data were analysed with Statistica software (TIBCO, USA version 11.1). All data are expressed as means±standard error of the mean (sem) to one decimal place. […] Time course data were analysed by repeated measures analysis of variance (ANOVA) followed by one-way ANOVAs at each time point and subsequent Dunnett's post hoc tests. […]

O=C(Nc1cccnn1)[C@H]1CC12CCN(C(=O)OC(C(F)(F)F)C(F)(F)F)CC2 [Example 6, 1,1,1,3,3,3-Hexafluoropropan-2-yl (S)-1-(pyridazin-3-ylcarbamoyl)-6-azaspiro[2.5]octane-6-carboxylate] was tested, and the “anticonvulsant effects in the kainic acid seizure test” value ([1]; dose-range 0.3-10 mg/kg p.o., 4 hours before the test, rat) was “clear anticonvulsant effects”, the “magnitude of the effects in the kainic acid seizure test compared with reference” value ([1]; middle-high doses, reference Diazepam 16 mg/kg p.o.) was “close to those observed with the reference substance, Diazepam” and the “measure of spontaneous pain (hind limb licking frequency)” value [2] was “statistically significant reduction”.
